Patent US20100298141A1, “SUBSTITUTED PYRIDINE N-OXIDE HERBICIDES” (E. I. DU PONT DE NEMOURS AND COMPANY, priority 2007, published 2010)

How the values were obtained:
bermudagrass = test: Test C pre-/postemergence test; format: in vivo, Cynodon dactylon
Procedure, shortened: (§1)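 Test chemicals were formulated with surfactant in a non-phytotoxic solvent and sprayed both on freshly planted seeds (preemergence) and on 1- to 4-leaf plants of 2–18 cm (postemergence). Flooded-paddy pots received compound directly into 3 cm of standing water, maintained for the test.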

giant foxtail = test: Test A pre-/postemergence greenhouse test; format: in vivo, Setaria faberi; details: for Foxtail, Giant plant response rating: 0 to 100 scale
Procedure, shortened: (§2)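 Visual injury ratings against untreated controls, taken roughly ten days after treatment in greenhouse. Plants were sprayed postemergence at one- to two-leaf stage (2–10 cm tall); at the same time, seeded loam/sand soil received a directed preemergence spray. Formulation: non-phytotoxic solvent mixture with surfactant.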

crabgrass [1] = test: Test C pre-/postemergence test; format: in vivo, Digitaria sanguinalis; details: Preemergence
Procedure, shortened: as §1

barnyardgrass [2] = test: Test C flooded paddy test; format: in vivo, Echinochloa crus-galli; details: Flood
Procedure, shortened: (§3)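 Flooded 3 cm over soil; compound into paddy water; depth kept constant. Greenhouse 13–15 d.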

morningglory = test: Test A pre-/postemergence greenhouse test; format: in vivo, Ipomoea spp.; details: for Morningglory plant response rating: 0 to 100 scale
Procedure, shortened: as §2

Surinam grass = test: Test C pre-/postemergence test; format: in vivo, Brachiaria decumbens; details: Preemergence
Procedure, shortened: as §1

soybean = test: Test C pre-/postemergence test; format: in vivo, Glycine max; details: Preemergence
Procedure, shortened: as §1

Goosegrass = test: Test C pre-/postemergence test; format: in vivo, Eleusin indica; details: Preemergence
Procedure, shortened: as §1

Italian ryegrass = test: Test C pre-/postemergence test; format: in vivo, Lolium multiflorum; details: Preemergence
Procedure, shortened: as §1

lambsquarters = test: Test C pre-/postemergence test; format: in vivo, Chenopodium album; details: 62 g ai/ha, Preemergence; scale 0 to 100
Procedure, shortened: as §1

cocklebur = test: Test C pre-/postemergence test; format: in vivo, Xanthium strumarium
Procedure, shortened: as §1

crabgrass [3] = test: Test A pre-/postemergence greenhouse test; format: in vivo, Digitaria sanguinalis; details: for Crabgrass, Large plant response rating: 0 to 100 scale
Procedure, shortened: as §2

kochia = test: Test C pre-/postemergence test; format: in vivo, Kochia scoparia; details: Preemergence, 31 g ai/ha; scale 0 to 100 (0 no effect, 100 complete control)
Procedure, shortened: as §1

pigweed = test: Test C pre-/postemergence test; format: in vivo, Amaranthus retroflexus; details: Preemergence
Procedure, shortened: as §1

umbrella sedge = test: Test C flooded paddy test; format: in vivo, Cyperus difformis; details: Flood
Procedure, shortened: as §3

[4] = system: common (oilseed) sunflower; test: Test C pre-/postemergence test; format: in vivo, Helianthus annuus; details: Preemergence
Procedure, shortened: as §1

barnyardgrass [5] = test: Test A pre-/postemergence greenhouse test; format: in vivo, Echinochloa crus-galli; details: for Barnyardgrass plant response rating: 0 to 100 scale
Procedure, shortened: as §2

[6] = Preemergence, 31 g ai/ha, scale 0 to 100 (0 no effect, 100 complete control)
[7] = preemergence, 125 g ai/ha, scale 0 (no effect) to 100 (complete control)
[8] = Postemergence, 125 g ai/ha, 0 is no effect, 100 is complete control
[9] = Postemergence, 500 g ai/ha, 0 is no effect, 100 is complete control
[10] = Preemergence, 125 g ai/ha, 0 no effect, 100 complete control
[11] = Preemergence, 500 g ai/ha, 0 to 100 scale where 0 is no effect and 100 is complete control
[12] = 31 g ai/ha, scale 0 to 100 (0 no effect, 100 complete control)
[13] = 62 g ai/ha, scale 0 to 100, 0 no effect, 100 complete control, 13 to 15 days
[14] = 125 g ai/ha, scale 0 to 100, 0 no effect, 100 complete control, 13 to 15 days

Structure (SMILES): Cn1nc(C(F)(F)F)c(CS(=O)(=O)c2cc(C(C)(C)C)cc[n+]2[O-])c1OC(F)F [Compound 25]
- Bermudagrass plant response rating (bermudagrass; 62 g ai/ha, Preemergence, scale 0 to 100 (0 no effect, 100 complete control)): 100
- Plant response rating, Bermudagrass (bermudagrass; [6]): 75
- Plant response rating (0 to 100), Bermudagrass (bermudagrass; Preemergence, 250 g ai/ha): 100
- Bermudagrass plant response rating (bermudagrass; [7]): 100
- Foxtail, Giant plant response rating (giant foxtail; [8]): 30
- Foxtail, Giant plant response rating (giant foxtail; [9]): 70
- Foxtail, Giant plant response rating (giant foxtail; [10]): 100
- Plant response rating, Foxtail, Giant (giant foxtail; [11]): 100
- Crabgrass, Large plant response rating (crabgrass [1]; 62 g ai/ha, scale 0 to 100): 100
- Plant response rating, Crabgrass, Large (crabgrass [1]; [12]): 100
- Plant response rating (0 to 100), Crabgrass, Large (crabgrass [1]; 250 g ai/ha): 100
- Plant response rating, Barnyardgrass (barnyardgrass [2]; [12]): 0
- Plant response rating, Barnyardgrass (barnyardgrass [2]; [13]): 0
- Plant response rating, Barnyardgrass (barnyardgrass [2]; [14]): 30
- Plant response rating, Barnyardgrass (barnyardgrass [2]; 250 g ai/ha, scale 0 to 100 (0 no effect, 100 complete control)): 80
- Morningglory plant response rating (morningglory; [8]): 10
- Morningglory plant response rating (morningglory; [9]): 60
- Morningglory plant response rating (morningglory; [10]): 0
- Plant response rating, Morningglory (morningglory; [11]): 80
- Surinam Grass plant response rating (Surinam grass; 62 g ai/ha, scale 0 to 100): 50
- Plant response rating, Surinam Grass (Surinam grass; [12]): 0
- Soybean plant response rating (soybean; 62 g ai/ha, scale 0 to 100): 20
- Plant response rating, Soybean (soybean; [12]): 0
- Goosegrass plant response rating (Goosegrass; 62 g ai/ha, scale 0 to 100): 100
- Plant response rating, Goosegrass (Goosegrass; [12]): 100
- Plant response rating (0 to 100), Goosegrass (Goosegrass; 250 g ai/ha): 100
- Ryegrass, Italian plant response rating (Italian ryegrass; 62 g ai/ha, scale 0 to 100): 0
- Plant response rating, Ryegrass, Italian (Italian ryegrass; [12]): 0
- Lambsquarters plant response rating (lambsquarters): 60
- Cocklebur plant response rating (cocklebur; 62 g ai/ha, Preemergence, scale 0 to 100): 0
- Plant response rating, Cocklebur (cocklebur; [6]): 0
- Plant response rating (0 to 100), Cocklebur (cocklebur; Preemergence, 250 g ai/ha): 0
- Cocklebur plant response rating (cocklebur; [7]): 0
- Crabgrass, Large plant response rating (crabgrass [3]; [8]): 10
- Crabgrass, Large plant response rating (crabgrass [3]; [9]): 70
- Crabgrass, Large plant response rating (crabgrass [3]; [10]): 90
- Plant response rating, Crabgrass, Large (crabgrass [3]; [11]): 100
- Plant response rating, Kochia (kochia): 0
- Pigweed plant response rating (pigweed; 62 g ai/ha, scale 0 to 100): 100
- Plant response rating, Pigweed (pigweed; [12]): 100
- Plant response rating, Sedge, Umbrella (umbrella sedge; [12]): 0
- Plant response rating, Sedge, Umbrella (umbrella sedge; [13]): 80
- Plant response rating, Sedge, Umbrella (umbrella sedge; [14]): 80
- Plant response rating, Sedge, Umbrella (umbrella sedge; 250 g ai/ha, scale 0 to 100, 0 no effect, 100 complete control, 13 to 15 days): 85
- Sunflower plant response rating ([4]; 62 g ai/ha, scale 0 to 100): 0
- Plant response rating, Sunflower [4, 12]: 0
- Barnyardgrass plant response rating (barnyardgrass [5]; [8]): 40
- Barnyardgrass plant response rating (barnyardgrass [5]; [9]): 50
- Barnyardgrass plant response rating (barnyardgrass [5]; [10]): 90
- Plant response rating, Barnyardgrass (barnyardgrass [5]; [11]): 100
